{
  "source": "paper PMC8474115",
  "about": "(Journal of Medicinal Chemistry, 2021)",
  "key": {"[1]": {"molecular_target": "T1, 5-HT3R (Cavia porcellus, UniProt O70212)", "T1 sequence (O70212 20-490)": "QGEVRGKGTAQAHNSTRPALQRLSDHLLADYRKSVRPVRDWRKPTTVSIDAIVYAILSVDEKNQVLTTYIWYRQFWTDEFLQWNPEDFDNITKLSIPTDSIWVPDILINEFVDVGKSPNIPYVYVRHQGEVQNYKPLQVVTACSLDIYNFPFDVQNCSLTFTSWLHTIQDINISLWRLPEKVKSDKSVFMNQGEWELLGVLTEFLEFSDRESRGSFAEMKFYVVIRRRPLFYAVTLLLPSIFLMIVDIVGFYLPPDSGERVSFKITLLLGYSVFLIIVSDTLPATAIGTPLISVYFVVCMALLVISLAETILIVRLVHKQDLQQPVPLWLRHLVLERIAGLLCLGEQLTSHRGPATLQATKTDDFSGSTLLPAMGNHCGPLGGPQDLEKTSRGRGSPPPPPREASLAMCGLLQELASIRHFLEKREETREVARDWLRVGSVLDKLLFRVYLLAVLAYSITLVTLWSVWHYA", "conditions": "for antagonist effect: percent inhibition of response to 5-HT 3 μM (contraction of guinea pig ileum); for functional classification at 5-HT3R: guinea pig ileum contraction", "description": "Isolated guinea pig ileum was employed to test the affinity and the intrinsic activity of the investigated compounds for 5-HT3 receptors. […] A 15 cm ileum segment was excised from the small intestine of male guinea pigs and immersed into a Krebs solution (NaCl 120 mM, KCl 5.6 mM, MgCl2 2.2 mM, CaCl2 2.4 mM, NaHCO3 19 mM, glucose 10 mM). After the first 5 cm length closest to the ileocaecal junction had been discarded 2 cm-long fragments were cut. Each segment of the ileum was placed in a 20 mL chamber of tissue organ bath system (Tissue Organ Bath System – 750 TOBS, DMT, Denmark) filled with the Krebs solution at 37° C, pH 7.4, with constant oxygenation (O2/CO2, 19:1), fixed by the lower end to a rod and by the upper end to the force–displacement transducer. The preparation was allowed to stabilize in organ baths for 60 min under a resting tension of 0.5 g, washing every 15 min with fresh Krebs solution. After the equilibration period, a cumulative concentration–response curve was constructed in each tissue for 5-HT (10 nM – 10 μM) by the method of van Rossum.[64] […] Selected compounds were tested using an additional method. After establishment of the first 5-HT concentration–response curve, washing out of the tissue, and stabilization period, the same tissues were subsequently incubated with one of the concentrations of the tested compound for 15 min and the next cumulative concentration curve to 5-HT was obtained. Only one concentration of a studied compound was tested in each piece of tissue."}, "[2]": {"molecular_target": "T2, h5-HT6R (Homo sapiens, UniProt P50406)", "T2 sequence (P50406 whole entry)": "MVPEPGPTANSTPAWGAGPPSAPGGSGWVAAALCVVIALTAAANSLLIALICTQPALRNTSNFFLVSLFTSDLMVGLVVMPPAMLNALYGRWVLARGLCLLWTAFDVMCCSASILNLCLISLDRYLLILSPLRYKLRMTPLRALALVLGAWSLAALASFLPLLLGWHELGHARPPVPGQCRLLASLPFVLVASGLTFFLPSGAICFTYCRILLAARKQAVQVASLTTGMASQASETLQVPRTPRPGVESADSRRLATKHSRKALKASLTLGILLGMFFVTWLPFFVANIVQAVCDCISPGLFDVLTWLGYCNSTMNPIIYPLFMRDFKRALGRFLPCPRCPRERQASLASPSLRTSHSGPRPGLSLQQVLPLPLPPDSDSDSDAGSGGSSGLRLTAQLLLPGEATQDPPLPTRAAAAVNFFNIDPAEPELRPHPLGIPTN", "assay": "Inhibition of 5-CT-induced cAMP production in 1321N1 cells expressing h5-HT6R", "type": "cell-based", "design": "host or cells: 1321N1", "conditions": "10^–6 M, percent inhibition of control agonist response"}, "[3]": {"molecular_target": "T2, h5-HT6R", "conditions": "HEK cells stably expressing h5-HT6R", "description": "For membrane preparation, cells after reaching 90% confluence, were washed with phosphate-buffered saline (PBS), and pelleted by centrifugation (200 × g) in PBS containing 0.1 mM EDTA and 1 mM dithiothreitol.\nThe total reaction volume was 200 μL. The incubation process was terminated by filtration through UniFilter-96 (PerkinElmer) plates with the FilterMate Universal Harvester (PerkinElmer, #C961962), and radioactivity retained on the filters was quantified on a MicroBeta counter for radiometric detection (PerkinElmer). […] To evaluate the level of nonspecific signal 10 μM of 5-HT for 5-HT1AR and 5-HT7R, 20 μM of mianserin for 5-HT2AR, 10 μM of methiothepine for 5-HT6R and 10 μM of haloperidol for D2LR were used. […] The acquired results were presented as the mean of at least two independent experiments."}},
  "note": "Values joined by “and” are separate entries in the source; they are usually repeats but may differ in a detail not shown here. Identical values can stand only once. Counter-ions that a name gives are not always drawn. Like-named read-outs stand apart in the source and are kept apart here.",
  "data": [
    {"smiles": "O=S(=O)(c1ccccc1Cl)n1ccc2c(N3CCNCC3)nc3ccccc3c21", "note": "(as salt: hydrochloride)", "values": [
      {"measurement": "melting point", "value": "157 to 159", "unit": "°C"}
    ]},
    {"smiles": "O=S(=O)(c1ccc(F)c(F)c1)n1ccc2c(N3CCNCC3)nc3ccccc3c21", "note": "(as salt: hydrochloride)", "values": [
      {"measurement": "melting point", "value": "180 to 182", "unit": "°C"}
    ]},
    {"smiles": "O=S(=O)(c1ccc(Cl)c(Cl)c1)n1ccc2c(N3CCNCC3)nc3ccccc3c21", "note": "(as salt: hydrochloride)", "values": [
      {"measurement": "melting point", "value": "203 to 205", "unit": "°C"}
    ]},
    {"smiles": "O=S(=O)(c1cccc2ccccc12)n1ccc2c(N3CCNCC3)nc3ccccc3c21", "note": "(as salt: hydrochloride)", "values": [
      {"measurement": "melting point", "value": "218 to 220", "unit": "°C"}
    ]},
    {"smiles": "CN1CCN(c2nc3ccccc3c3c2ccn3S(=O)(=O)c2ccccc2)CC1", "note": "(as salt: hydrochloride) [Compound 6, 1-(Phenylsulfonyl)-4-(4-methylpiperazin-1-yl)-1H-pyrrolo[3,2-c]quinoline hydrochloride]", "values": [
      {"measurement": "melting point", "value": "127 to 129", "unit": "°C"}
    ]},
    {"smiles": "O=S(=O)(c1ccccc1)n1ccc2c(N3CCNCC3)nc3ccccc3c21", "note": "(as salt: hydrochloride) [Compound 7, 1-(Phenylsulfonyl)-4-(piperazin-1-yl)-1H-pyrrolo[3,2-c]quinoline dihydrochloride]", "values": [
      {"measurement": "melting point", "value": "130 to 132", "unit": "°C"}
    ]},
    {"smiles": "O=S(=O)(c1ccccc1)n1ccc2c(N[C@H]3CCNC3)nc3ccccc3c21", "note": "(as salt: hydrochloride) [Compound 8, (S)-1-(Phenylsulfonyl)-N-(pyrrolidin-3-yl)-1H-pyrrolo[3,2-c]quinolin-4-amine dihydrochloride]", "values": [
      {"measurement": "melting point", "value": "220 to 222", "unit": "°C"}
    ]},
    {"smiles": "O=S(=O)(c1ccccc1)n1ccc2c(NC3CNC3)nc3ccccc3c21", "note": "(as salt: hydrochloride) [Compound 9, N-(Azetidin-3-yl)-1-(phenylsulfonyl)-1H-pyrrolo[3,2-c]quinolin-4-amine dihydrochloride]", "values": [
      {"measurement": "melting point", "value": "243 to 246", "unit": "°C"}
    ]},
    {"smiles": "CNC1CCN(c2nc3ccccc3c3c2ccn3S(=O)(=O)c2ccccc2)C1", "note": "(centres unmarked) (as salt: hydrochloride) [Compound 10, N-Methyl-1-(1-(phenylsulfonyl)-1H-pyrrolo[3,2-c]quinolin-4-yl)pyrrolidin-3-amine dihydrochloride]", "values": [
      {"measurement": "melting point", "value": "256 to 258", "unit": "°C"}
    ]},
    {"smiles": "O=S(=O)(c1ccccc1)n1ccc2c(N3CCCNCC3)nc3ccccc3c21", "note": "(as salt: hydrochloride) [Compound 11, 4-(1,4-Diazepan-1-yl)-1-(phenylsulfonyl)-1H-pyrrolo[3,2-c]quinoline dihydrochloride]", "values": [
      {"measurement": "melting point", "value": "247 to 248", "unit": "°C"}
    ]},
    {"smiles": "CN1CCN(c2nc3ccccc3c3c2ccn3S(=O)(=O)c2cccc(F)c2)CC1", "note": "(as salt: hydrochloride) [Compound 12, 1-[(3-Fluorophenyl)sulfonyl]-4-(4-methylpiperazin-1-yl)-1H-pyrrolo[3,2-c]quinoline hydrochloride]", "values": [
      {"measurement": "melting point", "value": "176 to 177", "unit": "°C"}
    ]},
    {"smiles": "O=S(=O)(c1ccccc1Br)n1ccc2c(N3CCNCC3)nc3ccccc3c21", "note": "(as salt: hydrochloride) [Compound 15, 1-[(2-Bromophenyl)sulfonyl]-4-(piperazin-1-yl)-1H-pyrrolo[3,2-c]quinoline dihydrochloride]", "values": [
      {"measurement": "melting point", "value": "158 to 160", "unit": "°C"}
    ]},
    {"smiles": "O=S(=O)(c1cccc(Cl)c1)n1ccc2c(N3CCNCC3)nc3ccccc3c21", "note": "(as salt: hydrochloride) [Compound 18, 1-[(3-Chlorophenyl)sulfonyl]-4-(piperazin-1-yl)-1H-pyrrolo[3,2-c]quinoline dihydrochloride]", "values": [
      {"measurement": "melting point", "value": "161 to 163", "unit": "°C"}
    ]},
    {"smiles": "O=S(=O)(c1cccc(C(F)(F)F)c1)n1ccc2c(N3CCNCC3)nc3ccccc3c21", "note": "(as salt: hydrochloride) [Compound 19, 1-{[3-(Trifluoromethyl)phenyl]sulfonyl}-4-(piperazin-1-yl)-1H-pyrrolo[3,2-c]quinoline dihydrochloride]", "values": [
      {"measurement": "melting point", "value": "182 to 185", "unit": "°C"}
    ]},
    {"smiles": "Cc1cccc(S(=O)(=O)n2ccc3c(N4CCNCC4)nc4ccccc4c32)c1", "note": "(as salt: hydrochloride) [Compound 20, 1-[(3-Methylphenyl)sulfonyl]-4-(piperazin-1-yl)-1H-pyrrolo[3,2-c]quinoline dihydrochloride]", "values": [
      {"measurement": "melting point", "value": "179 to 181", "unit": "°C"}
    ]},
    {"smiles": "O=S(=O)(c1ccc(F)cc1)n1ccc2c(N3CCNCC3)nc3ccccc3c21", "note": "(as salt: hydrochloride) [Compound 22, 1-[(4-Fluorophenyl)sulfonyl]-4-(piperazin-1-yl)-1H-pyrrolo[3,2-c]quinoline dihydrochloride]", "values": [
      {"measurement": "melting point", "value": "172 to 174", "unit": "°C"}
    ]},
    {"smiles": "O=S(=O)(c1ccc(C(F)(F)F)cc1)n1ccc2c(N3CCNCC3)nc3ccccc3c21", "note": "(as salt: hydrochloride) [Compound 23, 1-{[4-(Trifluoromethyl)phenyl]sulfonyl}-4-(piperazin-1-yl)-1H-pyrrolo[3,2-c]quinoline dihydrochloride]", "values": [
      {"measurement": "melting point", "value": "165 to 167", "unit": "°C"}
    ]},
    {"smiles": "CC(C)c1ccc(S(=O)(=O)n2ccc3c(N4CCNCC4)nc4ccccc4c32)cc1", "note": "(as salt: hydrochloride) [Compound 24, 1-[(4-iso-Propylphenyl)sulfonyl]-4-(piperazin-1-yl)-1H-pyrrolo[3,2-c]quinoline dihydrochloride]", "values": [
      {"measurement": "melting point", "value": "212 to 214", "unit": "°C"}
    ]},
    {"smiles": "O=S(=O)(c1cc(F)ccc1F)n1ccc2c(N3CCNCC3)nc3ccccc3c21", "note": "(as salt: hydrochloride) [Compound 27, 1-[(2,5-Difluorophenyl)sulfonyl]-4-(piperazin-1-yl)-1H-pyrrolo[3,2-c]quinoline dihydrochloride]", "values": [
      {"measurement": "melting point", "value": "204 to 206", "unit": "°C"}
    ]},
    {"smiles": "CN1CCN(c2nc3ccccc3c3c2ccn3S(=O)(=O)c2ccccc2)CC1", "note": "[Compound 6, 1-(Phenylsulfonyl)-4-(4-methylpiperazin-1-yl)-1H-pyrrolo[3,2-c]quinoline hydrochloride]", "values": [
      {"measurement": "antagonist effect", "setting": "[1]; 100 nM", "value": 28, "unit": "%"},
      {"measurement": "antagonist effect", "setting": "[1]; 300 nM", "value": 48, "unit": "%"},
      {"measurement": "functional classification at 5-HT3R", "setting": "[1]", "value": "antagonistic properties"}
    ]},
    {"smiles": "O=S(=O)(c1ccccc1)n1ccc2c(N3CCNCC3)nc3ccccc3c21", "note": "[Compound 7, 1-(Phenylsulfonyl)-4-(piperazin-1-yl)-1H-pyrrolo[3,2-c]quinoline dihydrochloride]", "values": [
      {"measurement": "antagonist effect", "setting": "[1]; 100 nM", "value": 26, "unit": "%"},
      {"measurement": "antagonist effect", "setting": "[1]; 300 nM", "value": 60, "unit": "%"},
      {"measurement": "functional classification at 5-HT3R", "setting": "[1]", "value": "antagonistic properties"}
    ]},
    {"smiles": "O=S(=O)(c1ccccc1)n1ccc2c(N[C@H]3CCNC3)nc3ccccc3c21", "note": "[Compound 8, (S)-1-(Phenylsulfonyl)-N-(pyrrolidin-3-yl)-1H-pyrrolo[3,2-c]quinolin-4-amine dihydrochloride]", "values": [
      {"measurement": "antagonist effect", "setting": "[1]; 300 nM", "value": "32% and 32 (300 nM) %"}
    ]},
    {"smiles": "O=S(=O)(c1ccccc1)n1ccc2c(NC3CNC3)nc3ccccc3c21", "note": "[Compound 9, N-(Azetidin-3-yl)-1-(phenylsulfonyl)-1H-pyrrolo[3,2-c]quinolin-4-amine dihydrochloride]", "values": [
      {"measurement": "antagonist effect", "setting": "[1]; 300 nM", "value": "35% and 35 (300 nM) %"}
    ]},
    {"smiles": "CNC1CCN(c2nc3ccccc3c3c2ccn3S(=O)(=O)c2ccccc2)C1", "note": "(centres unmarked) [Compound 10, N-Methyl-1-(1-(phenylsulfonyl)-1H-pyrrolo[3,2-c]quinolin-4-yl)pyrrolidin-3-amine dihydrochloride]", "values": [
      {"measurement": "antagonist effect", "setting": "[1]; 300 nM", "value": "48% and 48 (300 nM) %"}
    ]},
    {"smiles": "O=S(=O)(c1ccccc1)n1ccc2c(N3CCCNCC3)nc3ccccc3c21", "note": "[Compound 11, 4-(1,4-Diazepan-1-yl)-1-(phenylsulfonyl)-1H-pyrrolo[3,2-c]quinoline dihydrochloride]", "values": [
      {"measurement": "antagonist effect", "setting": "[1]; 300 nM", "value": "53% and 53 (300 nM) %"}
    ]},
    {"smiles": "CN1CCN(c2nc3ccccc3c3c2ccn3S(=O)(=O)c2cccc(F)c2)CC1", "note": "[Compound 12, 1-[(3-Fluorophenyl)sulfonyl]-4-(4-methylpiperazin-1-yl)-1H-pyrrolo[3,2-c]quinoline hydrochloride]", "values": [
      {"measurement": "antagonist effect", "setting": "[1]; 30 nM", "value": 30, "unit": "%"},
      {"measurement": "antagonist effect", "setting": "[1]; 100 nM", "value": 74, "unit": "%"}
    ]},
    {"smiles": "CN1CCN(c2nc3ccccc3c3c2ccn3S(=O)(=O)c2cccc(Cl)c2)CC1", "note": "[Compound 13, 1-[(3-Chlorophenyl)sulfonyl]-4-(4-methylpiperazin-1-yl)-1H-pyrrolo[3,2-c]quinoline hydrochloride]", "values": [
      {"measurement": "antagonist effect", "setting": "[1]; 100 nM", "value": 10, "unit": "%"},
      {"measurement": "antagonist effect", "setting": "[1]; 300 nM", "value": 44, "unit": "%"}
    ]},
    {"smiles": "O=S(=O)(c1ccccc1Br)n1ccc2c(N3CCNCC3)nc3ccccc3c21", "note": "[Compound 15, 1-[(2-Bromophenyl)sulfonyl]-4-(piperazin-1-yl)-1H-pyrrolo[3,2-c]quinoline dihydrochloride]", "values": [
      {"measurement": "antagonist effect", "setting": "[2]", "value": 69, "unit": "%"},
      {"measurement": "Ki", "setting": "[3]", "value": 13, "unit": "nM"}
    ]},
    {"smiles": "O=S(=O)(c1cccc(C(F)(F)F)c1)n1ccc2c(N3CCNCC3)nc3ccccc3c21", "note": "[Compound 19, 1-{[3-(Trifluoromethyl)phenyl]sulfonyl}-4-(piperazin-1-yl)-1H-pyrrolo[3,2-c]quinoline dihydrochloride]", "values": [
      {"measurement": "antagonist effect", "setting": "[1]; 100 nM", "value": 21, "unit": "%"},
      {"measurement": "antagonist effect", "setting": "[1]; 300 nM", "value": 37, "unit": "%"},
      {"measurement": "pD2′", "setting": "[1]; antagonist potency, guinea pig ileum", "value": 6.09}
    ]},
    {"smiles": "COc1cccc(S(=O)(=O)n2ccc3c(N4CCNCC4)nc4ccccc4c32)c1", "note": "[Compound 21, 1-[(3-Methoxyphenyl)sulfonyl]-4-(piperazin-1-yl)-1H-pyrrolo[3,2-c]quinoline dihydrochloride]", "values": [
      {"measurement": "antagonist effect", "setting": "[1]; 100 nM", "value": 28, "unit": "%"},
      {"measurement": "antagonist effect", "setting": "[1]; 300 nM", "value": 73, "unit": "%"}
    ]},
    {"smiles": "O=S(=O)(c1cc(F)ccc1F)n1ccc2c(N3CCNCC3)nc3ccccc3c21", "note": "[Compound 27, 1-[(2,5-Difluorophenyl)sulfonyl]-4-(piperazin-1-yl)-1H-pyrrolo[3,2-c]quinoline dihydrochloride]", "values": [
      {"measurement": "antagonist effect", "setting": "[1]; 300 nM", "value": "32 (300 nM) %"}
    ]}
  ]
}
